Drawing on ChEMBL document CHEMBL3745640, “Challenges in the Discovery of Indoleamine 2,3-Dioxygenase 1 (IDO1) Inhibitors” (J Med Chem, 2015), this text covers Ki and IC50 for 18 compounds.

The target of experiment [1] is T1, Indoleamine 2,3-dioxygenase 1 (Homo sapiens, UniProt P14902). As to the kind of experiment: Inhibition of human recombinant IDO1 using L-tryptophan as substrate after 15 mins by Dixon plot analysis.
Experiment [2] addresses T1, Indoleamine 2,3-dioxygenase 1. The experiment is described as follows: Inhibition of 6His-tagged human recombinant IDO1 expressed in Escherichia coli EC 539 using L-tryptophan as substrate after 1 hr by plate reader analysis.
Experiment [3] can be described thus: Competitive inhibition of rabbit small intestine IDO1 by double reciprocal plot analysis in presence of L-tryptophan. The arrangement: species or system Oryctolagus cuniculus.
Experiment [4] concerns the target T1, Indoleamine 2,3-dioxygenase 1. As to the kind of experiment: Inhibition of N-terminal His-tagged human recombinant IDO1 expressed in Escherichia coli using L-tryptophan as substrate by methylene blue/ascorbate assay.
Experiment [5] has the same target. The experiment is described as follows: Inhibition of IDO (unknown origin).
The target is the same in experiment [6]. The experiment is described as follows: Inhibition of N-terminal His-tagged human recombinant IDO1 expressed in Escherichia coli using tryptophan as substrate by UV-visible absorption spectroscopy.
Experiment [7] shares this target. The experiment is described as follows: Inhibition of IFN-gamma-stimulated IDO1 activity in human HeLa cells using L-tryptophan as substrate after 48 hrs by spectrophotometric analysis. Format: cell-based.
Experiment [8] has the same target. The experiment is described as follows: Inhibition of N-terminal His-tagged human recombinant IDO1 expressed in Escherichia coli using L-tryptophan as substrate preincubated for 10 mins followed by substrate addition measured after 30 mins by plate reader analysis.
Experiment [9] shares this target. As to the kind of experiment: Inhibition of human IDO1 in HEK293 cells after 20 hrs by plate reader assay. It counts as cell-based.
For experiment [10] the target is unchanged. As to the kind of experiment: Inhibition of C-terminal 6His-tagged human IDO using L-tryptophan as substrate preincubated for 5 mins followed by substrate addition measured after 15 mins by spectrophotometric analysis.
The target is the same in experiment [11]. As to the kind of experiment: Inhibition of N-terminal hexa-Histidine tagged human IDO1 expressed in Escherichia coli using L-tryptophan as substrate after 30 mins by HPLC analysis.
Experiment [12] has the same target. As to the kind of experiment: Inhibition of human recombinant IDO1 expressed in yeast IS20-2B using tryptophan as substrate by methylene blue/ascorbate assay.
The target is the same in experiment [13]. The experiment is described as follows: Inhibition of human IDO using L-tryptophan as substrate preincubated for 5 mins followed by substrate addition measured after 15 mins by spectrophotometric analysis.
For experiment [14] the target is unchanged. As to the kind of experiment: Noncompetitive inhibition of human recombinant IDO1 expressed in Escherichia coli by Michaelis-Menton nonlinear regression plot analysis in presence of L-tryptophan.
The target is the same in experiment [15]. As to the kind of experiment: Competitive inhibition of 6His-tagged human recombinant IDO expressed in Escherichia coli BL21DE3pLys.

T1 sequence (P14902 whole entry): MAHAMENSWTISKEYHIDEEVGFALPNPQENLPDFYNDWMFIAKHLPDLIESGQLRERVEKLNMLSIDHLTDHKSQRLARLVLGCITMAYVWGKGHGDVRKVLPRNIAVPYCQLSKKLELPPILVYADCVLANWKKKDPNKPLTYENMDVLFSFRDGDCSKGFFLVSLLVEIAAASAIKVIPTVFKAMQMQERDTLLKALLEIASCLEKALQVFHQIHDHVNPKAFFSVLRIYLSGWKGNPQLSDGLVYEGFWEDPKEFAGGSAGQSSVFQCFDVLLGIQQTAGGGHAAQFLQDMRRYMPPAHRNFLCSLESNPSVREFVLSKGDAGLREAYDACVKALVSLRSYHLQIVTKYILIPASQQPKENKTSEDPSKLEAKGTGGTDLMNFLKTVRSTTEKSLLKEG

What is called Ki is a measure of affinity in units of concentration, obtained from inhibition or displacement. Turning to `N=C1C=C(N)C(=O)c2[nH]c(=O)ccc21`, the Ki in experiment [1] amounted to 4300 nM.

Usually IC50 stands for the concentration at which inhibition is half-maximal. As to `COc1cccc2c1C(=O)C1=C(C[C@H](Cn3cc(-c4ccccc4)nn3)O[C@@H]1C)C2=O`, the IC50 in [2] worked out at 6000 nM. With `N[C@@H](CC1=CCC=CC1)C(=O)O`, the Ki in [3] was determined as 230000 nM.

Consider `CC1(C)CCC[C@]2(C)[C@H]3CC=C(C=O)CC(O)[C@]3(C=O)CC[C@@H]12` (stereo partly drawn), for which the concentration for half-maximal inhibition (IC50) in [4] came to 7700 nM. In experiment [5], `CN1C(=O)c2ccccc2-n2c(nc3ccccc3c2=O)C1[C@H](O)c1ccccc1` (stereo partly drawn) registered an IC50 of 21000 nM. `Nc1oc2c(-c3ccnc(N4CCOCC4)c3)nccc2c1Nc1ccc(F)c(Cl)c1`: the IC50 in experiment [6] was less than 200 nM. On to `CCc1ccccc1Nc1cnn[nH]1`, for which the IC50 in experiment [7] is less than 1000 nM. With `COC1=CC(=O)c2oc(C)c(CO)c2C1=O`, the half-maximal inhibitory concentration (IC50) in experiment [8] amounted to 240 nM. As for `CCCC(CCC)Oc1c(Br)cc(-c2ccccc2-c2nnn[nH]2)cc1NC(=O)Nc1ccccc1F`, it took 3 nM to reach half-maximal inhibition in experiment [9] (IC50).

`CC(C)CN(CC(C)C)c1ccc(C(CC(=O)O)C(F)(F)F)cc1NC(=O)Nc1ccc(F)cc1F` (stereo not drawn): the half-inhibitory concentration (IC50) in experiment [9] came out at 3 nM.

Compound `O=C(Cc1ccccc1)Nc1ccc(CCOc2ccccc2-c2cnc[nH]2)cc1` registered an IC50 in experiment [10] of less than 1000 nM.

Regarding `COc1cc(OC(=O)c2c(C)c(C)c(OC(=O)c3c(C)cc(O)c(C)c3O)c(C)c2OC)c(C)c(C)c1C(=O)O`, the IC50 in [5] was 15000 nM. Regarding `Cc1ccc(CC(=O)Nc2cc(-c3ccccc3-c3nnn[nH]3)ccc2N2CC3CC2CN3Cc2ccccc2)cc1` (stereo not drawn), half-maximal inhibition in experiment [9] (IC50) required 5 nM. `N#CC(Nc1ccc(F)c(Cl)c1)c1cc(Cl)ccc1O` (stereo not drawn) returned a half-inhibitory concentration (IC50) in experiment [11] of less than 200 nM.

Take `C/N=C(N)/N=C(\N)Nc1cc2ccccc2c2ccccc12`: in [12], the Ki was 1500 nM.

For the compound `NOCc1ccccc1`, the IC50 in experiment [13] was less than 10000 nM.

Regarding `CC1(C)CCC2=C(O1)c1ccccc1C(=O)C2=O` [LAPACHONE], the Ki in experiment [14] was determined as 100 nM. For `CN1C(=O)C(Cc2c[nH]c3ccccc23)NC1=S` (stereo not drawn) [NECROSTATIN], in [15], the inhibition constant Ki was determined as 12000 nM.
